Experimental data taken from patent publication US9907799B2, “Tau aggregation inhibitor” (THE DOSHISHA, priority 2013, dated 2018).

Key:
Format in all cases: biochemical
[1] = target: T1, human-type tau 0N4R isoform (recombinant tau) (Homo sapiens, UniProt P10636); assay: quantity of sarcosyl insoluble tau by electrophoresis after 168 hours incubation; conditions: incubation for 168 hours; 0.1-100 μM
T1 construct: Fractions including full-length recombinant tau were mixed together; made in house; host or cells: E. coli BL21(DE3)
T1 sequence (P10636 1-383 isoform P10636-6): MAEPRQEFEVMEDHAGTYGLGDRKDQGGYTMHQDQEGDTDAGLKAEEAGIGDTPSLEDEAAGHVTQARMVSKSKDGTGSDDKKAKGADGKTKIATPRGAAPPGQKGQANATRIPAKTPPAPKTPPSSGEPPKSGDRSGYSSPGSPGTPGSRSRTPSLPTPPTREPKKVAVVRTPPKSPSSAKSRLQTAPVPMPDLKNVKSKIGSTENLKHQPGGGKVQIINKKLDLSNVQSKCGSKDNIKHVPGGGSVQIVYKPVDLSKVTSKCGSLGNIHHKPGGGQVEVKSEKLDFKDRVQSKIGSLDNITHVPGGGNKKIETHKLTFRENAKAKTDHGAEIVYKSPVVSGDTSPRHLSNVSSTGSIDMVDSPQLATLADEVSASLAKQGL
Description: (§1) First of all, a plasmid expressing human-type tau 0N4R isoform (383 amino acid) was introduced into E. coli BL21(DE3) strain to purify a recombinant tau. The purification was carried out by modifying the method of Taniguchi et al. (see Taniguchi et al., 2008, JBC, 280, 7614). A soluble fraction was prepared based on E. coli in which tau expression had been induced with isopropyl-β-thiogalactopyranoside, and then fractionation was carried out with a phosphocellulose column (e.g., P11 column produced by Whatman). The fraction eluted at an NaCl concentration of 0.1 to 0.3 M was recovered to perform precipitation and concentration using ammonium sulfate. […] The yield and concentration of the tau thus obtained were analyzed by Coomassie Brilliant Blue (CBB) staining after the product was subjected to electrophoresis using 10% polyacrylamide gel.
(§2) The dried and purified recombinant tau sample was dissolved in purified water at a concentration of 0.9 mg/ml. […] Next, their fluorescence value (under excitation light at 360 nm and fluorescent light at 465 nm) was measured with a fluorescent plate reader (infinit F200 produced by TECAN). Thereafter, heparin was added so that the concentration would be 60 μg/ml and then incubation was carried out at 37° C. in a moisture retention box to measure a variation in fluorescence value with time. […]

[2] = target: T1, human-type tau 0N4R isoform (recombinant tau); assay: sucrose density-gradient centrifugation fractionation of polymerized tau, electrophoresis and Western blotting; conditions: 10 μM
Description: as §1, §2

[3] = target: T1, human-type tau 0N4R isoform (recombinant tau); assay: tau aggregation inhibition experiment, thioflavin T fluorescence (heparin-induced); conditions: 1 μM compound, compared to 1 μM isoproterenol under the same incubation condition
Description: First of all, a plasmid expressing human-type tau 0N4R isoform (383 amino acid) was introduced into E. coli BL21(DE3) strain to purify a recombinant tau. The purification was carried out by modifying the method of Taniguchi et al. (see Taniguchi et al., 2008, JBC, 280, 7614). A soluble fraction was prepared based on E. coli in which tau expression had been induced with isopropyl-β-thiogalactopyranoside, and then fractionation was carried out with a phosphocellulose column (e.g., P11 column produced by Whatman). The fraction eluted at an NaCl concentration of 0.1 to 0.3 M was recovered to perform precipitation and concentration using ammonium sulfate. The precipitate thus obtained was dissolved in a buffer containing 0.5 M of NaCl and 2% of 2-mercaptoethanol and then heated to 100° C. for five minutes. Then, the reactant was subjected to a centrifugation at 15,000×g for 15 minutes. The supernatant thus obtained was recovered and then subjected to precipitation and concentration with ammonium sulfate. The precipitate thus obtained was dissolved in a solution containing 20% of acetonitrile and 0.1% of formic acid so as to be purified using reversed phase HPLC (with a Cosmosil protein-R column produced by Nacalai Tesque). Fractions including full-length recombinant tau were mixed together and then the mixture thus obtained was dried with a freeze dryer to obtain a dried and purified recombinant tau sample. The yield and concentration of the tau thus obtained were analyzed by Coomassie Brilliant Blue (CBB) staining after the product was subjected to electrophoresis using 10% polyacrylamide gel.
The dried and purified recombinant tau sample was dissolved in purified water at a concentration of 0.9 mg/ml. […] Next, their fluorescence value (under excitation light at 360 nm and fluorescent light at 465 nm) was measured with a fluorescent plate reader (infinit F200 produced by TECAN). Thereafter, heparin was added so that the concentration would be 60 μg/ml and then incubation was carried out at 37° C. in a moisture retention box to measure a variation in fluorescence value with time. The incubation was carried out for 168 hours, the fluorescence value was measured, and then the reacted solution was recovered to prepare a sarcosyl insoluble fraction. The sarcosyl insoluble fraction was made to have a final concentration of 1% by adding an aqueous solution of 10% (one-tenth quantity of) sodium N-lauroylsarcosinate to the reacted solution recovered. The solution was subjected to incubation at 4° C. for 30 minutes and then subjected to a centrifugation at 100,000×g for 20 minutes to separate the supernatant and the precipitate from each other. With the supernatant fraction and the precipitate regarded as a soluble tau fraction and a sarcosyl insoluble fraction, respectively, the yield of tau was analyzed by electrophoresis using 10% polyacrylamide gel. Also, part of the reacted solution was fractionated by sucrose density-gradient centrifugation using the method of Maeda et al. (see Maeda et al., 2007, Biochemistry, 46, 3856). After the centrifugation, the reactant was fractioned into 1 to 6 according to density and the tau yield was analyzed by 10% polyacrylamide gel electrophoresis and Western blotting.
During screening, the concentration of the compound was supposed to be 1 μM and compared to the effect achieved by 1 μM of isoproterenol under the same incubation condition.

CC(C)NCC(O)c1ccc(O)c(O)c1 (stereo not shown) [isoproterenol]
inhibition of tau polymerization (sarcosyl insoluble tau), concentration dependence [1]: inhibited the tau polymerization depending on the concentration
quantity of the tau recovered in Fraction 3 (oligomer tau) [2]: also seen to decrease
quantity of the tau recovered in Fractions 4 and 5 (fibrosed tau) [2]: seen to decrease significantly

CC(C)CCN(CCC(C)C)c1ccc(O)c(O)c1 [4-(diisopentylamino) catechol]
tau polymerization inhibitory activity (thioflavin T activity) [3]: decreased significantly to almost the same level as isoproterenol's

CC(=O)c1ccc(O)c(O)c1 [3,4-dihydroxyacetophenone]
tau polymerization inhibitory activity (thioflavin T activity) [3]: as high tau polymerization inhibitory activity as isoproterenol and catechol

NCc1ccc(O)c(O)c1 [3,4-dihydroxybenzylamine]
tau polymerization inhibitory activity (thioflavin T activity) [3]: as high tau polymerization inhibitory activity as isoproterenol and catechol

O=C(Nc1ccc(O)c(O)c1)N1CCOCC1 [4-(morpholinocarbonylamino) catechol]
tau polymerization inhibitory activity (thioflavin T activity) [3]: intense tau polymerization inhibitory activity slightly decreased

NCC(O)c1ccccc1 (stereo not shown) [2-amino-1-phenylethanol]
tau polymerization inhibitory activity (thioflavin T activity) [3]: No tau polymerization inhibitory activities

O=Cc1ccc(O)c(O)c1 [3,4-dihydroxybenzaldehyde]
tau polymerization inhibitory activity (thioflavin T activity) [3]: exhibited no tau polymerization inhibitory activity

COc1ccc(CCN)cc1OC [2-(3,4-dimethoxy)ethylamine]
tau polymerization inhibitory activity (thioflavin T activity) [3]: nor 2-(3,4-dimethoxy)ethylamine (indicated by 3,4-DMPT and represented by the following Chemical Formula (10)) exhibited any tau polymerization inhibitory activity

CC(C)CCNc1ccc(O)c(O)c1 [4-(isopentylamino) catechol]
tau polymerization inhibitory activity (thioflavin T activity) [3]: intense tau polymerization inhibitory activity did not change

NCCCC(=O)Nc1ccc(O)c(O)c1 [4-(4-aminobutanoylamino) catechol]
tau polymerization inhibitory activity (thioflavin T activity) [3]: decreased significantly to almost the same level as isoproterenol's

COc1cccc(O)c1O [3-methoxycatechol]
tau polymerization inhibitory activity (thioflavin T activity) [3]: also exhibited as high tau polymerization inhibitory activity

NCC(O)c1ccc(Cl)c(Cl)c1 (stereo not shown) [2-amino-1-(3,4-dichlorophenyl)ethanol]
tau polymerization inhibitory activity (thioflavin T activity) [3]: No tau polymerization inhibitory activities

CC(C)(C)c1ccc(O)c(O)c1 [4-tert-butylcatechol]
tau polymerization inhibitory activity (thioflavin T activity) [3]: as high tau polymerization inhibitory activity as isoproterenol and catechol

O=Cc1cccc(O)c1O [2,3-dihydroxybenzaldehyde]
tau polymerization inhibitory activity (thioflavin T activity) [3]: also exhibited as high tau polymerization inhibitory activity

COc1ccc(CCN)cc1OC [homoveratylamine]
tau polymerization inhibitory activity (thioflavin T activity) [3]: Neither homoveratylamine (indicated by HV and represented by the following Chemical Formula (9)) nor 2-(3,4-dimethoxy)ethylamine (indicated by 3,4-DMPT and represented by the following Chemical Formula (10)) exhibited any tau polymerization inhibitory activity

COc1ccc(O)c(O)c1 [4-methoxycatechol]
tau polymerization inhibitory activity (thioflavin T activity) [3]: did not affect 1,2,4-benzenetriol's intense tau polymerization inhibitory activity

Oc1ccc(C(O)CN2CCOCC2)cc1O (stereo not shown) [1-(3,4-dihydroxyphenyl)-2-morpholinoethanol]
tau polymerization inhibitory activity (thioflavin T activity) [3]: somewhat higher tau polymerization inhibitory activity than isoproterenol and catechol

NCC(O)c1cccnc1 (stereo not shown) [2-amino-1-(pyridine-3-yl)ethanol]
tau polymerization inhibitory activity (thioflavin T activity) [3]: none of these compounds exhibited the tau polymerization inhibitory activity

Cn1ccnc1C(O)CN (stereo not shown) [2-amino-1-(1-methyl-1H-imidazol-2-yl)ethanol]
tau polymerization inhibitory activity (thioflavin T activity) [3]: none of these compounds exhibited the tau polymerization inhibitory activity

Nc1cccc(O)c1O [3-aminocatechol]
tau polymerization inhibitory activity (thioflavin T activity) [3]: inhibited the tau polymerization as strongly as 4-aminocatechol did

O=C(CCl)c1ccc(O)c(O)c1 [4-chloroacetylcatechol]
tau polymerization inhibitory activity (thioflavin T activity) [3]: somewhat higher tau polymerization inhibitory activity than isoproterenol and catechol

Oc1ccc(Cl)cc1O [4-chlorocatechol]
tau polymerization inhibitory activity (thioflavin T activity) [3]: as high tau polymerization inhibitory activity as isoproterenol and catechol

NCC(O)c1ccco1 (stereo not shown) [2-amino-1-(furan-2-yl)ethanol]
tau polymerization inhibitory activity (thioflavin T activity) [3]: none of these compounds exhibited the tau polymerization inhibitory activity
